The results in this text go back to patent publication US10745434B2, “Uridine phosphoramide prodrug, preparation method therefor, and medicinal uses thereof” (priority 2016, dated 2020).

Read-outs that look alike come from different tables or passages of the source.

One data set has as its system HCV GT1b replicons. The data set is described as follows: Anti-HCV replicon activity, HCV GT1b stable transfection replicon cell line (luciferase). In kind it is cell-based, hepatitis C virus (HCV) genotype (GT) 1b. As for the experimental part: (§1) A hepatitis C virus (HCV) genotype (GT) 1b stable transfection replicon cell line system was used to determine the inhibitory activity of the compounds to the HCV GT1b replicons. In this experiment, the compound 06a (GS-7977) was used as a control compound to monitor the experimental quality.
(§2) [drawing 4] 2. Compound dilution: 20 mM mother liquor was prepared by using 100% DMSO, and the compound DMSO mother liquor was diluted and added to a 96-well experiment plate. The final concentration of the DMSO was 0.5%. In in-vitro anti-HCV activity experiments and cytotoxicity experiments, all compounds had the initial concentration of 20 microns, and were diluted by 5 times of dilution. The final concentration of the DMSO of 6 concentrations were 0.5%. 3. Cell treatment: HCV-1b replicon sub-cells were added to the above 96-well cell plate (8,000 cells/well), and then placed into an incubator of 37 DEG C. and 5% CO2 for culturing for 3 days. 4. Cell activity detection: a cell growth fluorescent titration detection reagent was added to each well; after the cells were cultured for 1 hour in the incubator of 37 DEG C. and 5% CO2, a spectrophotometer detection system Envision was used to detect a Fluorescence signal value. The original data, i.e, relative fluorescence units (RFUs), was used for the calculation of the cell toxicity of the compounds. 5. Anti-HCV replicon activity detection: a luciferase light-emitting substrate bright-GLO was added to each well, and a chemiluminescence detection system Envision was used for detecting a Luminescence signal value in 5 minutes. The original data, i.e., relative light units (RLUs), was used for the calculation of the inhibitory activity of the compounds. 6. Data processing: the RFUs obtained in step 1.3 were processed into a cell activity percentage by using the following formula: […]
The RLUs obtained in step 1.4 were processed into a inhibition percentage by using the following formula:
[formula] *CPD: signal values of compound wells HPE (high percent effect): 100% effective action control well signal value, with only DMEM culture solution in the wells; The ZPE (zero percent effect): noneffective control well signal value, with 0.5% DMSO to replace the compound.
(§3) The cell activity percentage and the inhibition percentage were respectively imported into GraphPad Prism software for data processing to obtain curves corresponding to the compounds and their values of cytotoxicity (CC50) and inhibitory activity (ECD50) to the HCV replicons.
A general note: Replicon systems follow genome replication, usually without infectious particles.

In data set [1] the test system is HCV-1b replicon sub-cells. Put plainly: Cytotoxicity in HCV-1b replicon cells (cell growth fluorescent titration). In kind it is cell-based. Conditions: HCV GT1b replicon cells, 3 days. As for the experimental part:
as §1, §2, §3

The nature of data set [2]: Rat in-vivo metabolism and tissue distribution: metabolite TSL1100 in liver after intragastric administration. The arrangement: species or system SD rats. The settings on record: rat PO 50 mg/kg. As for the experimental part: 18 SD rats (male, 6-9 weeks old, purchased from Vital River Animal center) were divided into 6 groups randomly, 3 rats in each group, fasted for 12 hours first before administration, freely fed with water during the fasting period. After the administration is carried out for 4 hours, the fasting was ended. 50 mg compound was precisely weighed on a balance, and 95% (0.5% of cd))/5% solutol aqueous solution was added and uniformly mixed, and subjected to ultrasonic treatment for later use. The drug delivery dose was 50 mg/kg; the drug delivery concentration was […]; and the drug delivery volume was […].
The sample collection scheme: taking blood and liver tissues after carrying out intragastric administration on rats for 1 h, 2 h, 3 h, 6 h, 12 h and 24 h.
The liver tissue sample treatment method: taking a rat tissue sample in a plastic EP tube, and adding 5 times (w:v) 1.75 mL MeOH and 5 μL 50% KOH aqueous solution together with 0.75 mL 268 mM EDTA solution to prepare a solution, uniformly mixing and taking 60 μL sample, adding a 240 μL internal standard solution for mixing, carrying out vortex oscillation for 2 minutes, and centrifuging for 10 minutes (13000 rpm and 4 DEG C.), taking 30 μL of supernate, adding 30 μL of water, carrying out vortex mixing, centrifuging at 4 DEG C., and then taking 5 μL supernate for […] analysis.
LC-MS/MS-O (API 4000) liquid mass spectrometer and chromatographic column are adopted: ACQUITY UPLC BEH C18 130 Å 1.7 μm 2.1×50 mm the composition com: and tomitamide was adopted as an internal standard compound, gradient elution analysis is carried out after the sample is fed into the sample, and the internal standard is recorded respectively, the retention time and the peak area of the to-be-tested compound and the metabolite TSL 1100, the software phoenix winnonlin 6.2. The method is analyzed by an srms quantitative detection method.

Data set [3] can be described thus: Cytotoxicity in HCV-1b replicon cells (cell growth fluorescent titration). In kind it is cell-based. Conditions: HCV genotype 1b stably transfected replicon cells, HCV GT1b replicon cells. As for the experimental part: as §1, §2, §3
Data set [4] has as its target T1, herg potassium ion channel (Homo sapiens, UniProt Q12809).
T1 construct: host or cells: CHO cells stably expressing hERG
Put plainly: In vitro cardiotoxicity, hERG manual patch clamp in CHO cells. In kind it is cell-based. (hERG is a cardiac potassium channel; its block is linked to QT prolongation.)
Experimental: The experiment adopted CHO cells which can stably express the herg potassium ion channel from AVivaBiosciences company, wherein the cells were incubated in a constant-humidity environment at the temperature of 37 DEG C. with 5% CO2.
The compounds were tested on a Multiclamp patch-clamp amplifier at room temperature; the output signals were digitized by using a DLigital 1440 A/D-D/A board; the PCLAMP 10 software was used for recording and controlling. The minimum sealing resistance was set to 500 MOhms and the minimum specific hERG current was set to 0.4 nA for quality control.
Clampfit (V10.2, Molecular Devices), Excel 2003 and GraphPad Prism 5.0 were used for data analysis.

[5] abbreviates: HCV GT1b replicons, 3 days, maximum test concentration 20 μM, read-out: EC50 anti-HCV replicon activity.

T1 sequence (Q12809 whole entry): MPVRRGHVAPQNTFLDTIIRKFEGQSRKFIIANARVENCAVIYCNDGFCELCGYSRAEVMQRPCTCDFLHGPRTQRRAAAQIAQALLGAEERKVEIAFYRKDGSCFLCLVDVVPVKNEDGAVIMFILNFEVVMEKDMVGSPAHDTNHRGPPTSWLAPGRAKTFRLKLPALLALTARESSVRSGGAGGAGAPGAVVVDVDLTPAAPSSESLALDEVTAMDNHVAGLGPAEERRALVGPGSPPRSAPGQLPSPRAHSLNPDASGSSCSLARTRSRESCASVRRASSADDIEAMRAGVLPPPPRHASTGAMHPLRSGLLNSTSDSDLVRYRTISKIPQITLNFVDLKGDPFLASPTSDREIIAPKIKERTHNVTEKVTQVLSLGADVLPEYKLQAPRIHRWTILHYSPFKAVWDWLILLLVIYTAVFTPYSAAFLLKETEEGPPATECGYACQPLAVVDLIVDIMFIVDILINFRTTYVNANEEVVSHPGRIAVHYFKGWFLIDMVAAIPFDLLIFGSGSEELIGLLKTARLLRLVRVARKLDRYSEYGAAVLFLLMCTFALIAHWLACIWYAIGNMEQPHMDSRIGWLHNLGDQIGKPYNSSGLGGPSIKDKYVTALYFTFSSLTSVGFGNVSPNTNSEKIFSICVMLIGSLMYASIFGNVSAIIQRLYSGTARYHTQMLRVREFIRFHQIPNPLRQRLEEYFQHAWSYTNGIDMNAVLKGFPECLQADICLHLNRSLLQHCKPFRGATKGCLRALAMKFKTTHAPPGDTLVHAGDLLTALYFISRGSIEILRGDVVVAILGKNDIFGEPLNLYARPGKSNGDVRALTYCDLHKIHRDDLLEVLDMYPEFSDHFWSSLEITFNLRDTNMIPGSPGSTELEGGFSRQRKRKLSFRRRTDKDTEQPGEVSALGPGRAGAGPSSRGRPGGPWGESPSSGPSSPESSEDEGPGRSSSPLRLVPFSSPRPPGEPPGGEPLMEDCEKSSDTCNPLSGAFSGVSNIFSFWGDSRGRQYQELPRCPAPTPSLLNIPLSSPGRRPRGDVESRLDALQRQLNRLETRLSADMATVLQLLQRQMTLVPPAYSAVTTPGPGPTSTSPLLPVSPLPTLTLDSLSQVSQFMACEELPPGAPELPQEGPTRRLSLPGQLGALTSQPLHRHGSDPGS

With `CC(C)OC(=O)[C@H](C)NP(=O)(OCc1ccccc1)OC[C@H]1O[C@@H](n2ccc(=O)[nH]c2=O)[C@](C)(F)[C@@H]1O` (single isomer, unassigned) [Compound 01a], the EC50 with HCV GT1b replicons (setting [5]) came to 0.301 µM. Besides, the CC50 – broadly, the concentration at which the toxic effect on the cells reaches its halfway point – in data set [1] was more than 20 µM. Also, in data set [2], the AUCExtra amounted to 4.74%, the AUMCExtra was 18.9% and the Tlast amounted to 24.0 h.
In the same order, the values of `CC(C)OC(=O)[C@H](C)NP(=O)(OCc1ccccc1)OC[C@H]1O[C@@H](n2ccc(=O)[nH]c2=O)[C@](C)(F)[C@@H]1O` (single isomer, unassigned) [Compound 01b] are 9.15 µM, more than 20 µM, 6.61%, 19.8% and 12.0 h.
With `CC(C)OC(=O)[C@H](C)N[P@](=O)(OC[C@H]1O[C@@H](n2ccc(=O)[nH]c2=O)[C@](C)(F)[C@@H]1O)Oc1ccccc1` [Patent compound 06a in 2010], the EC50 in the data set on HCV GT1b replicons (Hepatitis C virus, GT1B, 72 h, read-out: EC50 anti-HCV replicon activity, HCV GT1b replicons, 3 days, maximum test concentration 20 μM) was found to be 0.719 µM. Further, the CC50 at 3 days in data set [3] is more than 3 µM. Moreover, the IC50 (commonly the concentration that gives 50% inhibition) in data set [4] is more than 10 µM.
